{"source": "DBAASP", "test_in_all_cases": "≥ marks a high value that may be exact or a test limit, other limits are often not marked, values filed in µg/mL are converted to µM", "key": {"[1]": {"system": "Candida albicans CPCC 400416"}, "[2]": {"system": "Staphylococcus aureus CPCC 100520"}, "[3]": {"system": "Escherichia coli CPCC 100521"}, "Enterococcus faecium": {"system": "Enterococcus faecium"}, "Staphylococcus aureus": {"system": "Staphylococcus aureus"}, "[4]": {"system": "Burkholderia cepacia ATCC 25416"}, "[5]": {"system": "Serratia marcescens ATCC 8100"}, "[6]": {"system": "Pseudomonas aeruginosa 547"}, "[7]": {"system": "Stenotrophomonas maltophilia"}, "[8]": {"system": "Acinetobacter baumannii ATCC 19606"}, "[9]": {"system": "Pseudomonas aeruginosa ATCC 27853"}, "[10]": {"system": "Escherichia coli ATCC 25922"}, "Streptococcus pyogenes": {"system": "Streptococcus pyogenes"}, "[11]": {"system": "Streptococcus pneumoniae ATCC 49619"}, "[12]": {"system": "Pseudomonas aeruginosa PA14"}, "Klebsiella pneumoniae": {"system": "Klebsiella pneumoniae"}, "Salmonella typhimurium": {"system": "Salmonella typhimurium"}, "[13]": {"system": "Listeria monocytogenes 10403s"}, "[14]": {"system": "Staphylococcus aureus ATCC 29213"}, "[15]": {"system": "Klebsiella pneumoniae ATCC 27736"}, "[16]": {"system": "Escherichia coli O18:K1:H7"}, "Pseudomonas aeruginosa": {"system": "Pseudomonas aeruginosa"}, "Acinetobacter baumannii": {"system": "Acinetobacter baumannii"}, "[17]": {"system": "Bacillus subtilis CGMCC 1.108"}, "[18]": {"system": "Micrococcus luteus CGMCC 1.634"}, "[19]": {"system": "Vibrio parahaemolyticus CGMCC 1.1615"}, "[20]": {"system": "Shigella flexneri CGMCC 1.1868"}, "Edwardsiella tarda": {"system": "Edwardsiella tarda"}, "[21]": {"system": "Corynebacterium glutamicum CGMCC 1.1886"}, "[22]": {"system": "Staphylococcus aureus CGMCC 1.363"}, "Aeromonas sobria": {"system": "Aeromonas sobria"}, "[23]": {"system": "Micrococcus luteus CGMCC 1.0634"}, "[24]": {"system": "Vibrio harveyi CGMCC 1.1593"}, "[25]": {"system": "Pseudomonas fluorescens CGMCC 1.0032"}, "[26]": {"system": "Vibrio alginolyticus CGMCC 1.1833"}, "Escherichia coli MC1061": {"system": "Escherichia coli MC1061"}, "[27]": {"system": "Staphylococcus epidermidis CGMCC 1.2429"}, "[28]": {"system": "Candida albicans CGMCC 2.2411"}, "[29]": {"system": "Vibrio fluvialis CGMCC 1.1609"}, "[30]": {"system": "Aeromonas hydrophila CGMCC 1.0927"}, "[31]": {"system": "Enterobacter cloacae CICC 21539"}, "[32]": {"system": "Staphylococcus aureus CICC 10306"}, "[33]": {"system": "Candida albicans CICC 1965"}, "[34]": {"system": "Pseudomonas aeruginosa CICC 21636"}, "[35]": {"system": "Escherichia coli CICC 10293"}, "[36]": {"system": "Salmonella enterica subsp. enterica serovar Paratyphi B CICC 10437"}, "[37]": {"system": "Listeria innocua CICC 10417"}, "[38]": {"system": "Saccharomyces cerevisiae CICC 1002"}, "[39]": {"system": "Serratia marcescens ATCC 4112"}, "[40]": {"system": "Staphylococcus aureus CICC 10384"}, "[41]": {"system": "Bacillus subtilis CICC 10034"}, "Streptococcus sanguinis": {"system": "Streptococcus sanguinis"}}, "data": [{"smiles": "CC[C@H](C)[C@H](NC(=O)CN)C(=O)NCC(=O)N[C@@H](CO)C(=O)N[C@@H](C)C(=O)N[C@H](C(=O)N[C@@H](CC(C)C)C(=O)N[C@@H](CO)C(=O)N[C@@H](C)C(=O)NCC(=O)N[C@@H](CCCCN)C(=O)N[C@@H](CO)C(=O)N[C@H](C(=O)N[C@H](C(=O)N[C@@H](CCCCN)C(=O)NCC(=O)N[C@@H](CC(C)C)C(=O)N[C@@H](C)C(=O)N[C@@H](CCCCN)C(=O)NCC(=O)N[C@@H](CC(C)C)C(=O)N[C@@H](C)C(=O)N[C@@H](CCC(=O)O)C(=O)N[C@@H](Cc1cnc[nH]1)C(=O)N[C@@H](Cc1ccccc1)C(N)=O)[C@@H](C)CC)[C@@H](C)CC)[C@@H](C)CC", "note": "[GIGSAILSAGKSIIKGLAKGLAEHF]", "values": [{"measurement": "MIC", "setting": "[1]", "result": "≥ 52.5", "unit": "µM"}, {"measurement": "MIC", "setting": "[2]", "result": 26.2, "unit": "µM"}, {"measurement": "MIC", "setting": "[3]", "result": 26.2, "unit": "µM"}]}, {"smiles": "CSCC[C@@H](NC(=O)[C@@H](Cc1c[nH]c2ccccc12)NC(=O)CNC(=O)CNC(=O)[C@@H](CCCN=C(N)N)NC(=O)[C@@H](CCCN=C(N)N)NC(=O)[C@@H](CCCN=C(N)N)NC(=O)[C@@H](CCC(N)=O)NC(=O)[C@@H](CCCN=C(N)N)NC(=O)[C@@H](CCCN=C(N)N)NC(=O)[C@@H](CCCCN)NC(=O)[C@@H](CCCCN)NC(=O)[C@@H](CCCN=C(N)N)NC(=O)CN)C(=O)N[C@H](Cc1c[nH]c2ccccc12)C(=O)N[C@@H](C(=O)N[C@@H](C(=O)N[C@H](CC(N)=O)C(=O)N[C@H](CC(C)C)C(=O)N[C@H](CCCN=C(N)N)C(=O)N[C@@H](C(=O)N[C@H](CC(=O)O)C(=O)O)[C@H](C)O)[C@H](C)O)C(C)C", "note": "[GRKKRRQRRRGGWMWVTNLRTD]", "values": [{"measurement": "MIC", "setting": "Enterococcus faecium", "result": 22.7, "unit": "µM"}, {"measurement": "MIC", "setting": "Staphylococcus aureus", "result": 45.5, "unit": "µM"}, {"measurement": "MIC", "setting": "[4]", "result": "≥ 91", "unit": "µM"}, {"measurement": "MIC", "setting": "[5]", "result": "≥ 91", "unit": "µM"}, {"measurement": "MIC", "setting": "[6]", "result": "≥ 45.5", "unit": "µM"}, {"measurement": "MIC", "setting": "[7]", "result": 5.69, "unit": "µM"}, {"measurement": "MIC", "setting": "[8]", "result": 2.84, "unit": "µM"}, {"measurement": "MIC", "setting": "[9]", "result": 22.7, "unit": "µM"}, {"measurement": "MIC", "setting": "[10]", "result": 11.4, "unit": "µM"}, {"measurement": "MIC", "setting": "Streptococcus pyogenes", "result": 2.84, "unit": "µM"}, {"measurement": "MIC", "setting": "[11]", "result": 22.7, "unit": "µM"}, {"measurement": "MIC", "setting": "[12]", "result": 11.4, "unit": "µM"}, {"measurement": "MIC", "setting": "Klebsiella pneumoniae", "result": "> 91", "unit": "µM"}, {"measurement": "MIC", "setting": "Salmonella typhimurium", "result": 22.7, "unit": "µM"}, {"measurement": "MIC", "setting": "[13]", "result": "≥ 45.5", "unit": "µM"}, {"measurement": "MIC", "setting": "[14]", "result": 45.5, "unit": "µM"}, {"measurement": "MIC", "setting": "[15]", "result": "≥ 91", "unit": "µM"}, {"measurement": "MIC", "setting": "[16]", "result": 22.7, "unit": "µM"}, {"measurement": "MIC", "setting": "Pseudomonas aeruginosa", "result": "> 45.5", "unit": "µM"}, {"measurement": "MIC", "setting": "Acinetobacter baumannii", "result": 5.69, "unit": "µM"}]}, {"smiles": "CC[C@H](C)[C@H](NC(=O)[C@H](CCCN=C(N)N)NC(=O)CNC(=O)[C@@H](NC(=O)[C@@H]1CCCN1C(=O)[C@H](Cc1ccccc1)NC(=O)[C@H](CCC(N)=O)NC(=O)[C@H](CC(C)C)NC(=O)CNC(=O)[C@H](C)NC(=O)[C@H](CCCN=C(N)N)NC(=O)[C@H](C)NC(=O)[C@H](CO)NC(=O)[C@H](CCCN=C(N)N)NC(=O)[C@H](CO)NC(=O)[C@@H](NC(=O)[C@H](C)NC(=O)[C@H](CCCCN)NC(=O)[C@H](C)NC(=O)[C@H](CCCCN)NC(=O)[C@H](C)NC(=O)[C@@H](N)CCCCN)C(C)C)C(C)C)C(=O)N[C@@H](Cc1cnc[nH]1)C(=O)N[C@@H](CCCN=C(N)N)C(=O)N[C@@H](Cc1cnc[nH]1)C(=O)N[C@@H](CC(C)C)C(=O)N[C@@H](CCCCN)C(=O)O", "note": "[KAKAKAVSRSARAGLQFPVGRIHRHLK]", "values": [{"measurement": "MIC", "setting": "[17]", "result": 2.12, "unit": "µM"}, {"measurement": "MIC", "setting": "[18]", "result": 1.06, "unit": "µM"}, {"measurement": "MIC", "setting": "[19]", "result": "≥ 48", "unit": "µM"}, {"measurement": "MIC", "setting": "[20]", "result": 1.06, "unit": "µM"}, {"measurement": "MIC", "setting": "Edwardsiella tarda", "result": "≥ 48", "unit": "µM"}, {"measurement": "MIC", "setting": "[21]", "result": 1.06, "unit": "µM"}, {"measurement": "MIC", "setting": "[22]", "result": 2.12, "unit": "µM"}, {"measurement": "MIC", "setting": "Aeromonas sobria", "result": 4.24, "unit": "µM"}, {"measurement": "MIC", "setting": "[23]", "result": 1.06, "unit": "µM"}, {"measurement": "MIC", "setting": "[24]", "result": "≥ 48", "unit": "µM"}, {"measurement": "MIC", "setting": "[25]", "result": 1.06, "unit": "µM"}, {"measurement": "MIC", "setting": "[26]", "result": "≥ 48", "unit": "µM"}, {"measurement": "MIC", "setting": "Escherichia coli MC1061", "result": 2.12, "unit": "µM"}, {"measurement": "MIC", "setting": "[27]", "result": 2.12, "unit": "µM"}, {"measurement": "MIC", "setting": "[28]", "result": "≥ 33.9", "unit": "µM"}, {"measurement": "MIC", "setting": "[29]", "result": "≥ 48", "unit": "µM"}, {"measurement": "MIC", "setting": "[30]", "result": 1.06, "unit": "µM"}]}, {"smiles": "CC[C@H](C)[C@H](NC(=O)[C@H](CCSC)NC(=O)[C@H](CO)NC(=O)[C@@H](NC(=O)[C@@H](NC(=O)[C@@H](N)CCCCN)C(C)C)[C@@H](C)CC)C(=O)O", "note": "[KVISMI]", "values": [{"measurement": "MIC", "setting": "[31]", "result": 23.2, "unit": "µM"}, {"measurement": "MIC", "setting": "[32]", "result": 11.6, "unit": "µM"}, {"measurement": "MIC", "setting": "[33]", "result": "≥ 46.4", "unit": "µM"}, {"measurement": "MIC", "setting": "[34]", "result": 23.2, "unit": "µM"}, {"measurement": "MIC", "setting": "[35]", "result": 11.6, "unit": "µM"}, {"measurement": "MIC", "setting": "[36]", "result": "≥ 46.4", "unit": "µM"}, {"measurement": "MIC", "setting": "[37]", "result": 5.8, "unit": "µM"}, {"measurement": "MIC", "setting": "[38]", "result": "≥ 46.4", "unit": "µM"}, {"measurement": "MIC", "setting": "[39]", "result": "≥ 46.4", "unit": "µM"}, {"measurement": "MIC", "setting": "[40]", "result": 11.6, "unit": "µM"}, {"measurement": "MIC", "setting": "[41]", "result": "≥ 46.4", "unit": "µM"}]}, {"smiles": "CC[C@H](C)[C@H](NC(=O)[C@H](Cc1ccccc1)NC(=O)[C@@H](N)CC(C)C)C(=O)N[C@@H](Cc1ccccc1)C(=O)N[C@@H](Cc1ccccc1)C(=O)N[C@@H](Cc1ccccc1)C(N)=O", "note": "[LFIFFF]", "values": [{"measurement": "MIC", "setting": "Staphylococcus aureus", "result": 15.4, "unit": "µM"}, {"measurement": "MIC", "setting": "Streptococcus sanguinis", "result": 4.65, "unit": "µM"}]}]}
